The values below come from US12459985B2, “G-protein-coupled receptor internal sensors” (THE REGENTS OF THE UNIVERSITY OF CALIFORNIA, priority 2016, dated 2025).

This assay addresses Beta2AR with a cpGFP integrated into the third intracellular loop (Homo sapiens, UniProt P07550). The conditions noted are these: saturating conditions (1 μM drug).

`CNC[C@H](O)c1ccc(O)c(O)c1` [epinephrine] showed a τ½ON (time constant of association) of 17.1 s. This compound also returned a τ½OFF (time constant of dissociation) of 235.34 s.
